{
  "source": "paper PMC10827794",
  "about": "(2024)",
  "key": {"[1]": {"system": "WT_5.3 (Oligo 5.3) (DNA, G4) CGGCCAGCCTGCCCGTGGGGGGGCCAGGGGAAGCCGCCCGTCTGGGACGTGGGGTCCCCA", "experiment": "fluorescent intercalator displacement (G4-FID)", "conditions": "TO displaced; ligand 0-2.5 μM"}, "[2]": {"system": "WT_5.2 (Oligo 5.2) (DNA, G4) CCGCGCGGTGAGTCTAGGGCCTGGCACGACCCCTCTAGGGCGGCGTAATGTCCAGACCCA", "experiment": "fluorescent intercalator displacement (G4-FID)", "conditions": "TO displaced; ligand 0-2.5 μM"}, "[3]": {"system": "WT_8.1 (Oligo 8.1) (DNA, G4) CTGCCTGACAAGGGCTAGGGGGAGATCTGTGTTGGGTGACCAGGGCCATA", "experiment": "fluorescent intercalator displacement (G4-FID)", "conditions": "TO displaced; ligand 0-2.5 μM"}, "[4]": {"system": "Template_8.1 with 8.1 primer (DNA, G4) CTGCCTGACAAGGGCTAGGGGGAGATCTGTGTTGGGTGACCAGGGCCATAAGTAAATTTCATCATACT/AGTATGATGAAATTTACTTATGG", "experiment": "polymerase stop (primer extension)", "conditions": "KCl, 1 mM MgCl2; 40 mM Tris-HCl pH 8.0, 40 °C; ligand 0-20 μM; truncated products"}, "[5]": {"system": "WT_14.1 (Oligo 14.1) (DNA, G4) AAAGGGAAGTATGGCTGGTGTACCGGGAGCAAGGGAGAGGGAAGGAGGGGCCAAATTAATAGGCCCACGGT", "experiment": "fluorescent intercalator displacement (G4-FID)", "conditions": "TO displaced; ligand 0-2.5 μM"}, "[6]": {"system": "WT_14.2 (Oligo 14.2) (DNA, G4) ATAGAGAGTGATGGGGAGGGGGTGAGTGGAGGGTCAAGGAAGGCCCTCCCTGAGGTGGTGTTATTTGACGGGGGTCCACA", "experiment": "fluorescent intercalator displacement (G4-FID)", "conditions": "TO displaced; ligand 0-2.5 μM"}, "[7]": {"system": "Template_5.2 with 5.2 primer (DNA, G4) CCGCGCGGTGAGTCTAGGGCCTGGCACGACCCCTCTAGGGCGGCGTAATGTCCAGACCCA/CGTGGGTCTGGACAT", "experiment": "polymerase stop (primer extension)", "conditions": "KCl, 1 mM MgCl2; 40 mM Tris-HCl pH 8.0, 40 °C; ligand 0-20 μM; truncated products"}, "[8]": {"system": "WT_5.1 (Oligo 5.1) (DNA, G4) TAGAGGACAGCGGGGAAGGCGGGCGGTGGGGCAGGGGGCCTGAAGCGGCGGTACCGGTGCTGGCGGCGGCAGCTGAGGCC", "experiment": "fluorescent intercalator displacement (G4-FID)", "conditions": "TO displaced; ligand 0-2.5 μM"}, "[9]": {"system": "WT_5.1R (RNA, G4) GCGAAAGGGGAAGGCGGGCGGUGGGGCAGGGGGCCUGAAGCGGCCUAGCUGUAGCUGACUGCA", "experiment": "fluorescence enhancement", "conditions": "no added monovalent cation; 10 mM Tris-Cl pH 7.5, 0.01 mM EDTA, 25 °C; 2 μM RNA, 2 μM ThT; ~160-fold enhancement"}, "[10]": {"system": "WT_14.1 (Oligo 14.1) (DNA, G4) AAAGGGAAGTATGGCTGGTGTACCGGGAGCAAGGGAGAGGGAAGGAGGGGCCAAATTAATAGGCCCACGGT", "experiment": "fluorescence enhancement", "conditions": "1 μM DNA, 2 μM TO"}, "[11]": {"system": "WT_40.1 (Oligo 40.1) (DNA, G4) GGGGGCGGGGGCGGGGGTGGGGGGAAGAAAAATTCCTAGCTGTAGCTGACTGCA", "experiment": "fluorescence enhancement", "conditions": "10 mM Tris-Cl pH 7.5, 25 °C, 1 μM DNA, 2 μM TO"}, "[12]": {"system": "WT_14.2 (Oligo 14.2) (DNA, G4) ATAGAGAGTGATGGGGAGGGGGTGAGTGGAGGGTCAAGGAAGGCCCTCCCTGAGGTGGTGTTATTTGACGGGGGTCCACA", "experiment": "fluorescence enhancement", "conditions": "1 μM DNA, 2 μM TO"}, "[13]": {"system": "WT_5.1 (Oligo 5.1) (DNA, G4) TAGAGGACAGCGGGGAAGGCGGGCGGTGGGGCAGGGGGCCTGAAGCGGCGGTACCGGTGCTGGCGGCGGCAGCTGAGGCC", "experiment": "fluorescence enhancement", "conditions": "1 μM DNA, 2 μM TO"}},
  "data": [
    {"smiles": "C[n+]1ccc(-c2c3nc(c(-c4cc[n+](C)cc4)c4ccc([nH]4)c(-c4cc[n+](C)cc4)c4nc(c(-c5cc[n+](C)cc5)c5ccc2[nH]5)C=C4)C=C3)cc1", "values": [
      {"measurement": "DC50", "setting": "[1]", "value": 956.3, "unit": "nM"},
      {"measurement": "DC50", "setting": "[2]", "value": 1039, "unit": "nM"},
      {"measurement": "DC50", "setting": "[3]", "value": 479.1, "unit": "nM"},
      {"measurement": "binding", "setting": "[4]", "value": "yes"},
      {"measurement": "DC50", "setting": "[5]", "value": 897.7, "unit": "nM"},
      {"measurement": "DC50", "setting": "[6]", "value": 629.6, "unit": "nM"},
      {"measurement": "binding", "setting": "[7]", "value": "yes"},
      {"measurement": "DC50", "setting": "[8]", "value": 880, "unit": "nM"}
    ]},
    {"smiles": "Cc1ccc2c(c1)sc(-c1ccc(N(C)C)cc1)[n+]2C", "values": [
      {"measurement": "binding", "setting": "[9]", "value": "yes"}
    ]},
    {"smiles": "CN1C(=Cc2cc[n+](C)c3ccccc23)Sc2ccccc21", "values": [
      {"measurement": "binding", "setting": "[10]", "value": "yes"},
      {"measurement": "binding", "setting": "[11]; 100 mM KCl, enhancement lower than without K+", "value": "yes"},
      {"measurement": "binding", "setting": "[11]; no added monovalent cation, ~330-fold enhancement", "value": "yes"},
      {"measurement": "binding", "setting": "[12]", "value": "yes"},
      {"measurement": "binding", "setting": "[13]", "value": "yes"}
    ]}
  ]
}
